For the assay, the target named is recombinant human GPR52 (Homo sapiens, UniProt Q9Y2T5). Nature of the assay: HTRF cAMP assay, GPR52 activity (Example A). The assay is classed as cell-based. The conditions noted are these: for Emax: maximum cAMP at 10 μM or 31.6 μM test compound, as percentage of Emax of control compound 4-(3-(3-fluoro-5-(trifluoromethyl)benzyl)-5-methyl-4,5-dihydro-1H-1,2,4-triazol-1-yl)-2-methylbenzamide. As to the method:
Compounds of Formula I were assessed for their ability to modulate GPR52 activity. HTRF CAMP assays were performed using a commercially available assay kit (CAMP Gs HiRange HTRF®, CisBio). Controls and compounds were solubilized in DMSO and 62.5 nanoliters of the diluted compounds were transferred into 384-well NBS assay plates via acoustic or precision low-volume dispensing. Compounds were further diluted to 1× with the addition of 20,000 cells per well. Flp-In™—CHO cells that stably express recombinant human GPR52 were used in the assay.
Cells were harvested with cell stripper and resuspended in stimulation buffer. After thirty minutes incubation at room temperature, detection reagents were added to each well. Plates were then incubated for an additional 30 minutes at room temperature. CAMP produced by the cells during the first incubation period competes with d2-labeled CAMP for binding to an anti-cAMP monoclonal antibody labeled with europium cryptate. The measured signal was inversely proportional to the concentration of cAMP produced by the cells and this signal was quantified using a PHERAstar® multi-mode plate reader.
Dose-response curves were generated from the HTRF counts that have been transformed based on a CAMP referenced curve, and then normalized to the positive control. EC50 values were obtained using a nonlinear regression curve-fitting program. […] The Emax (Table 13) is the maximum amount of cAMP (nM) produced by incubation of the cells with 10 μM or 31.6 μM of a test compound. The compound is defined by the top plateau of the sigmoid curve fit. The curve is then normalized to a control compound, in this case 4-(3-(3-fluoro-5-(trifluoromethyl)benzyl)-5-methyl-4,5-dihydro-1H-1,2,4-triazol-1-yl)-2-methylbenzamide (Tokumaru, K., et al., “Design, synthesis, and pharmacological evaluation of 4-azolyl-benzamide derivatives as novel GPR52 agonists”, Bioorganic & Medicinal Chemistry, Volume 25, Issue 12, June 2017, pages 3098-3115), and expressed as a percentage of the Emax of that control compound.

Setting [1] is: average EC50 (n=1 to 15), Flp-In-CHO cells stably expressing recombinant human GPR52, cAMP HTRF, read-out: EC50 (N=).

SMILES strings stand for the structures. Where two headings read alike, the source gives them in different places.

Chain of recombinant human GPR52 (Q9Y2T5 whole entry): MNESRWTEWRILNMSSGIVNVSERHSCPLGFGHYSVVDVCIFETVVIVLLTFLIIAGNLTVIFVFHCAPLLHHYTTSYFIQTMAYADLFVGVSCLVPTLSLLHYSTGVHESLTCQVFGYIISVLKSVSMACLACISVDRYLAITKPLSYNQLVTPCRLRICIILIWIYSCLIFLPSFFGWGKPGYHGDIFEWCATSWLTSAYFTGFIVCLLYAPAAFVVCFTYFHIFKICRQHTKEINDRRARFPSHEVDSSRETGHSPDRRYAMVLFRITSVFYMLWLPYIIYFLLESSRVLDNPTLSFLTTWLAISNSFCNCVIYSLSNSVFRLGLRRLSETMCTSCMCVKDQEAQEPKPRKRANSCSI

On to `CCc1cc(-c2cc(Oc3cnc4cc(F)ccc4c3)ccn2)ccc1C(N)=O` [Example 101, 2-ethyl-4-(4-((7-fluoroquinolin-3-yl)oxy)pyridin-2-yl)benzamide], for which the Emax is 80%. Under setting [1], the EC50 was 0.101 to 1 µM.

Take `CCc1cc(-c2cc(Oc3ccc4cnn(C)c4c3)cc(N)n2)ccc1C(N)=O` [Example 18, 4-(6-amino-4-((1-methyl-1H-indazol-6-yl)oxy)pyridin-2-yl)-2-ethylbenzamide]: the Emax amounted to 107%. Also, the EC50 under setting [1] fell in the range of 0.101 to 1 µM.

Turning to `Cc1cc(-c2cc(Oc3cnc4c(c3)C=C(F)CC4)ccn2)ccc1C(N)=O` [Example 121, 4-(4-((6-fluoro-7,8-dihydroquinolin-3-yl)oxy)pyridin-2-yl)-2-methylbenzamide], the Emax was found to be 78%. Further, the EC50 under setting [1] was in the range of 1 to 2 µM.

As to `NC(=O)c1ccc(-c2cc(Oc3ccc4ncccc4c3)ccn2)cc1C(F)(F)F` [Example 75, 4-(4-(quinolin-6-yloxy)pyridin-2-yl)-2-(trifluoromethyl)benzamide], the Emax was found to be 101%. Also, under setting [1], the EC50 is 0.101 to 1 µM.

With `CCn1ncc2ccc(Oc3ccnc(-c4ccc(C(N)=O)c(C)c4)c3)cc21` [Example 44, 4-(4-((1-ethyl-1H-indazol-6-yl)oxy)pyridin-2-yl)-2-methylbenzamide], the Emax came out at 91%. The EC50 under setting [1] is 0.101 to 1 µM.

As for `Cc1cc(-c2cc(Oc3cnc4ccc(F)cc4c3)ccn2)ccc1C(N)=O` [Example 105, 4-(4-((6-fluoroquinolin-3-yl)oxy)pyridin-2-yl)-2-methylbenzamide], the Emax turned out to be 51%. Besides, the EC50 under setting [1] is 0.101 to 1 µM.

For the molecule `Cc1cc(-c2cc(Oc3ccc4c(c3)CCC4=O)ccn2)ccc1C(N)=O` [Example 84, 2-methyl-4-(4-((1-oxo-2,3-dihydro-1H-inden-5-yl)oxy)pyridin-2-yl)benzamide], the maximal effect (Emax) was 123%. Also, the EC50 under setting [1] lay within 0.101 to 1 µM.

Turning to `CCc1cc(-c2cc(Oc3cnc4c(c3)c(C)nn4C)ccn2)ccc1C(N)=O` [Example 55, 4-(4-((1,3-dimethyl-1H-pyrazolo[3,4-b]pyridin-5-yl)oxy)pyridin-2-yl)-2-ethylbenzamide], the Emax was determined as 108%. Moreover, the EC50 under setting [1] was 0.025 to 0.1 µM.

Regarding `Cc1cc(-c2cc(Oc3ccc4c(C)nn(C(F)(F)F)c4c3)ccn2)ccc1C(N)=O` [Example 135, 2-methyl-4-(4-((3-methyl-1-(trifluoromethyl)-1H-indazol-6-yl)oxy)pyridin-2-yl)benzamide], the Emax amounted to 115%. In addition, under setting [1], the EC50 fell in the range of 0.101 to 1 µM.

As to `CNc1cc(-c2cc(Oc3ccc4c(C)nn(C)c4c3)ccn2)ccc1C(N)=O` [Example 35, 4-(4-((1,3-dimethyl-1H-indazol-6-yl)oxy)pyridin-2-yl)-2-(methylamino)benzamide], the maximal effect (Emax) worked out at 85%. Moreover, the EC50 under setting [1] was 0.101 to 1 µM.

Regarding `CCc1cc(-c2cc(Oc3cnc4c(c3)CCCO4)ccn2)ccc1C(N)=O` [Example 123, 4-(4-((3,4-dihydro-2H-pyrano[2,3-b]pyridin-6-yl)oxy)pyridin-2-yl)-2-ethylbenzamide], the Emax was 88%. Under setting [1], the EC50 lay within 0.101 to 1 µM.

Regarding `Cc1cc(-c2cc(Oc3ccc4ncccc4c3)ccn2)ccc1C(N)=O` [Example 74, 2-methyl-4-(4-(quinolin-6-yloxy)pyridin-2-yl)benzamide], the Emax was 95%. The EC50 under setting [1] lay in the range of 0.101 to 1 µM.

With `Cc1cc(-c2cc(Oc3ccn4nccc4c3)ccn2)ccc1C(N)=O` [Example 13, 2-methyl-4-(4-(pyrazolo[1,5-a]pyridin-5-yloxy)pyridin-2-yl)benzamide], the Emax worked out at 97%. Besides, under setting [1], the EC50 was 0.101 to 1 µM.

Turning to `CCc1cc(-c2cc(Oc3cnc4c(C)nn(C)c4c3)cc3nccn23)ccc1C(N)=O` [Example 81, 4-(7-((1,3-dimethyl-1H-pyrazolo[4,3-b]pyridin-6-yl)oxy)imidazo[1,2-a]pyridin-5-yl)-2-ethylbenzamide], the Emax came out at 76%. Further, the EC50 under setting [1] was 0.101 to 1 µM.

As for `Cc1cc(-c2cc(Oc3ccc4ncn(C)c4c3)ccn2)ccc1C(N)=O` [Example 8, 2-methyl-4-(4-((1-methyl-1H-benzo[d]imidazol-6-yl)oxy)pyridin-2-yl)benzamide], the maximal effect (Emax) came to 68%. Besides, the EC50 under setting [1] is 1 to 2 µM.

`CCc1cc(-c2cc(Oc3cc(F)c4ncccc4c3)ccn2)ccc1C(N)=O` [Example 97, 2-ethyl-4-(4-((8-fluoroquinolin-6-yl)oxy)pyridin-2-yl)benzamide]: the Emax was 132%. The EC50 under setting [1] was in the range of 0.101 to 1 µM.

For `CCc1cc(-c2cc(Oc3ccc4c(C#N)nn(C)c4c3)ccn2)ccc1C(N)=O` [Example 48, 4-(4-((3-cyano-1-methyl-1H-indazol-6-yl)oxy)pyridin-2-yl)-2-ethylbenzamide], the Emax came to 118%. For the same molecule, the EC50 under setting [1] lay in the range of 0.101 to 1 µM.

As for `CCc1cc(-c2cc(Oc3ccc4nccnc4c3)ccn2)ccc1C(N)=O` [Example 125, 2-ethyl-4-(4-(quinoxalin-6-yloxy)pyridin-2-yl)benzamide], the Emax is 90%. The EC50 under setting [1] is 0.101 to 1 µM.

Consider `CCc1cc(-c2cc(Oc3cnc4c(c3)c(C)nn4C)cc3nccn23)ccc1C(N)=O` [Example 78, 4-(7-((1,3-dimethyl-1H-pyrazolo[3,4-b]pyridin-5-yl)oxy)imidazo[1,2-a]pyridin-5-yl)-2-ethylbenzamide], for which the Emax was found to be 94%. Moreover, the EC50 under setting [1] was 0.101 to 1 µM.

Regarding `Cc1cc(-c2cc(Oc3ccc4c(C)nn(C)c4c3)ccn2)ccc1C(N)=O` [Example 25, 4-(4-((1,3-dimethyl-1H-indazol-6-yl)oxy)pyridin-2-yl)-2-methylbenzamide], the Emax was determined as 103%. In addition, the EC50 (Flp-In-CHO cells expressing human GPR52, read-out: average EC50) turned out to be 0.083 µM. For the same molecule, the EC50 under setting [1] lay in the range of 0.025 to 0.1 µM.

As for `CCc1cc(-c2cc(Oc3cc(F)c4cnn(C)c4c3)cc(N)n2)ccc1C(N)=O` [Example 20, 4-(6-amino-4-((4-fluoro-1-methyl-1H-indazol-6-yl)oxy)pyridin-2-yl)-2-ethylbenzamide], the Emax worked out at 111%. Moreover, under setting [1], the EC50 fell in the range of 0.101 to 1 µM.

With `Cc1cc(-c2cc(Oc3cccc4occc34)ccn2)ccc1C(N)=O` [Example 90, 4-(4-(benzofuran-4-yloxy)pyridin-2-yl)-2-methylbenzamide], the Emax came out at 107%. In addition, the EC50 under setting [1] is 1 to 2 µM.

As for `Cc1cc(-c2cc(Oc3ccc4cnccc4c3)ccn2)ccc1C(N)=O` [Example 93, 4-(4-(isoquinolin-6-yloxy)pyridin-2-yl)-2-methylbenzamide], the Emax came to 118%. In addition, under setting [1], the EC50 was 0.101 to 1 µM.

In the case of `CCc1cc(-c2cc(Oc3ccc4c(F)nn(C)c4c3)ccn2)ccc1C(N)=O` [Example 132, 2-ethyl-4-(4-((3-fluoro-1-methyl-1H-indazol-6-yl)oxy)pyridin-2-yl)benzamide], the Emax stood at 110%. The EC50 under setting [1] is 0.025 to 0.1 µM.

For `Cc1cnc(-c2ccc(C(N)=O)c(C)c2)cc1Oc1ccc2cnn(C)c2c1` [Example 50, 2-methyl-4-(5-methyl-4-((1-methyl-1H-indazol-6-yl)oxy)pyridin-2-yl)benzamide], the Emax is 78%. Moreover, the half-maximal effective concentration (EC50) under setting [1] was 0.101 to 1 µM.

As for `CCc1cc(-c2cc(Oc3cnc4cc(F)c(F)cc4c3)ccn2)ccc1C(N)=O` [Example 113, 4-(4-((6,7-difluoroquinolin-3-yl)oxy)pyridin-2-yl)-2-ethylbenzamide], the Emax amounted to 95%. Also, the EC50 under setting [1] fell in the range of 0.101 to 1 µM.

By EC50 is commonly meant the concentration needed to bring the measured effect to its halfway point. What is called Emax is the maximal effect, on the per cent scale that the assay sets.
